Assay results published in patent publication US20220265685A1, “METHODS AND COMPOSITIONS FOR IMPROVING COGNITIVE FUNCTION” (priority 2010, published 2022).
Like-named read-outs stand apart in the source and are kept apart here.

Key:
aged-impaired (AI) rats = assay: Radial Arm Maze (RAM) task, spatial memory retention of aged-impaired rats; assay type: in vivo, Long-Evans rats
Protocol: FIG. 1 depicts the effects of administering levetiracetam on the spatial memory retention of ten aged-impaired rats (AI) in an eight-arm Radial Arm Maze (RAM) test. Six treatment conditions are employed: vehicle control, levetiracetam (1.25 mg/kg/day), levetiracetam (2.5 mg/kg/day), levetiracetam (5 mg/kg/day), levetiracetam (10 mg/kg/day) and levetiracetam (20 mg/kg/day). In the RAM task used, there is a one-hour delay between presentation of a subset of arms (5 arms available and 3 arms blocked) and completion of the eight-arm win-shift task (eight arms available). Rats are pre-treated 30-40 minutes before daily trials with a one-time drug/control treatment. The number of errors made by the rats during the retention phase is used as a measure of spatial memory retention. Errors are defined as instances when rats enter an arm from which food has already been retrieved in the pre-delay component of the trial or when rats re-visit an arm in the post-delay session that had already been visited. Paired t-tests are used to compare the number of errors between different doses of levetiracetam and vehicle control.
FIG. 2 depicts the effects of administering donepezil only and administering a combination of donepezil and levetiracetam on the spatial memory retention of eight aged-impaired rats (AI) in an eight-arm Radial Arm Maze (RAM) test. Four treatment conditions are employed: vehicle control, donepezil only (1 mg/kg/day), donepezil (2 mg/kg/day), and a combination of donepezil (1 mg/kg/day) and levetiracetam (2.5 mg/kg/day). In the RAM task used, there is a two-hour delay between presentation of a subset of arms (5 arms available and 3 arms blocked) and completion of the eight-arm win-shift task (eight arms available). Rats are pre-treated 30-40 minutes before daily trials with a one-time drug/control treatment. The number of errors made by the rats during the retention phase is used as a measure of spatial memory retention. Errors are defined as instances when rats enter an arm from which food has already been retrieved in the pre-delay component of the trial or when rats re-visit an arm in the post-delay session that have already been visited. Paired t-tests are used to compare the number of errors between different doses of drug treatment and vehicle control.
Aged, male Long-Evans rats were obtained at 8 to 9 months of age from Charles River Laboratories (Raleigh, N.C.) and housed in a vivarium until 24 to 26 months of age. All rats were individually housed at 25° C. and maintained on a 12 h light/dark cycle. Food and water were provided ad libitum unless noted otherwise. The rats were examined for health and pathogen-free status throughout the experiments, as well as necropsies at the time of killing.
All rats were screened in a standardized assessment of spatial cognition. This background assessment used the above-described well-established MWM protocol. […] The selected AI rats were tested for their memory of new spatial information in a Radial Arm Maze (RAM) task, under different drug/control treatment conditions: vehicle control, donepezil only, levetiracetam only, and a combination of donepezil and levetiracetam. The RAM task also extended the behavioral assessment to spatial memory using appetitive motivation. We used a protocol that allowed within-subject assessment across drugs at different doses and in combinations (Koh et al., Neuropsychopharmacology, epub. 1-10, (2009)).
The radial maze consisted of eight arms projecting from each side of an octagonal center platform, with food well located at the distal end of each arm. Plexiglasm blocks could be positioned to prevent entry into any arm. Extra-maze cues were provided in the room surrounding the maze and illumination was provided by an overhead light.

aMCI subjects [1] = assay: fMRI activity of medial temporal lobe subregions during the explicit 3-alternative forced choice task; assay type: in vivo, human; conditions: levetiracetam 125 mg twice a day for two weeks vs placebo
Protocol: (§1) A within-subjects trial of 8 weeks duration, involving 17 amnestic MCI (aMCI) subjects and 17 age-matched controls with a low dose treatment of levetiracetam is conducted. During the course of the study, each aMCI subject receives both drug and placebo treatments separately in two periods of two weeks each, with the order of treatments among different aMCI subjects counterbalanced (see FIG. 3). Age-matched control subjects treated with placebo serve as a further control. Cognitive testing and fMRI imaging data are obtained from the subjects after each two week period of drug/placebo treatment.
(§2) As described above, the drug treatment period is the two weeks preceding Visit 1 or 2 (with the two week period preceding the other Visit being the placebo phase). For the subjects receiving the drug treatment, half a scored 250 mg tablet of levetiracetam is used to achieve a dose of […], which is approximately 3.6 mg/kg/day (assuming an average adult human weight of 70 kg).
Imaging data are obtained through high-resolution methods developed in the Stark laboratory. […]
Group data are analyzed using a two-way Analysis of Variance (ANOVA) with trial types and group as fixed factors, and subject as a random factor nested within group. […]

[2] = biological target: synaptic vesicle protein 2A (SV2A) (Homo sapiens, UniProt Q7L0J3); conditions: Noyer et al. 1995; Fuks et al. 2003; Lynch et al. 2004; Gillard et al. 2006; cited from earlier work
aMCI subjects [3] = assay: neuropsychological assessment (common cognitive tests); assay type: in vivo, human; conditions: levetiracetam 125 mg twice a day for two weeks
Protocol: as §1
All participants undergo neuropsychological evaluation at the time of assessment for treatment efficacy (Visits 1 and 2), as well as at the Baseline Visit.
The evaluation occurs outside of the scanner and includes the Buschke Selective Reminding Test (Buschke and Fuld, 1974) and the Verbal Paired Associates subtest, the Logical Memory subtest, the Visual Reproduction subtest of the Wechsler Memory Scale-Revised (WMS-R) (Wechsler, 1997), and the Benton Visual Retention Test, as these tasks are particularly sensitive to medial temporal lobe function and early memory problems (Marquis et al., 2002 and Masur et al., 1994). Additionally, subjects are asked to complete tests of more general cognitive function such as tests to assess general mental status, executive function, attention and general naming ability. All neuropsychological tests are administered by a trained research assistant during a 60-minute session. As the three neuropsychological assessments in this study occur within a time period of 8 weeks, different versions of the neuropsychological tests are used to minimize test specific practice effects. Breaks are provided to the subject as needed.
as §2

[4] = cited from earlier work
aMCI subjects [5] = assay: explicit 3-alternative forced choice task (lure stimuli), performance; assay type: in vivo, human; conditions: levetiracetam 125 mg twice a day for two weeks vs placebo, p=0.039
Text: There are various tests known in the art for assessing cognitive function in humans, for example and without limitation, the clinical global impression of change scale (CIBIC-plus scale); the Mini Mental State Exam (MMSE); the Neuropsychiatric Inventory (NPI); the Clinical Dementia Rating Scale (CDR); the Cambridge Neuropsychological Test Automated Battery (CANTAB); the Sandoz Clinical Assessment-Geriatric (SCAG), the Buschke Selective Reminding Test (Buschke and Fuld, 1974); the Verbal Paired Associates subtest; the Logical Memory subtest; the Visual Reproduction subtest of the Wechsler Memory Scale-Revised (WMS-R) (Wechsler, 1997); or the Benton Visual Retention Test. […]
as §2
The activity of the subject's medial temporal lobe is measured by functional MRI during the subject's participation in an explicit 3-alternative forced choice task, where participants view novel, repeated and similar (“lure”) stimuli. […]

Chain of synaptic vesicle protein 2A (SV2A) (Q7L0J3 whole entry, species assumed): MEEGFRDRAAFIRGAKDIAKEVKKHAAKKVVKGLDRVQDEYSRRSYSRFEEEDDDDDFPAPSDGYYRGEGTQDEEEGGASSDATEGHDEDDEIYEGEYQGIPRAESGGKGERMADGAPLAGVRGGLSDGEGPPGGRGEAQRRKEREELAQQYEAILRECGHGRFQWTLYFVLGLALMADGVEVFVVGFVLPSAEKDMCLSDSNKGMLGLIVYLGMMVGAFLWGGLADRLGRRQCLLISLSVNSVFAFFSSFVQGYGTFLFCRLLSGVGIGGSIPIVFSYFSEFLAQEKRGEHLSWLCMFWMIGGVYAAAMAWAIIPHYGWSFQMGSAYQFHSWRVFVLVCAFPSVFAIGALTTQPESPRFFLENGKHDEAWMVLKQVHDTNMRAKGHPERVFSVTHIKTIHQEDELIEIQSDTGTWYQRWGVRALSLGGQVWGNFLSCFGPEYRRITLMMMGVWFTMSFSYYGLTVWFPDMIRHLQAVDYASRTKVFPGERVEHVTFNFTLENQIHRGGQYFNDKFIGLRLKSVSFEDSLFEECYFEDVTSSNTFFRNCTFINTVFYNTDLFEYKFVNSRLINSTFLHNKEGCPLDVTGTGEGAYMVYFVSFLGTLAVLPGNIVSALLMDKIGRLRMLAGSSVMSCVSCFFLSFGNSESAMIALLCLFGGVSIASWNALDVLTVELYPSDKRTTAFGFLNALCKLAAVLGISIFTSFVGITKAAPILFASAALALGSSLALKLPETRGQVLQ

SMILES: COc1cc2c(cc1OC)C(=O)C(CC1CCN(Cc3ccccc3)CC1)C2 (stereo not shown) [donepezil, 2,3-dihydro-5,6-dimethoxy-2-((1-(phenylmethyl)-4-piperidinyl)methyl)-1H-inden-1-one]
- memory performance relative to vehicle control treatment (aged-impaired (AI) rats; donepezil 1 mg/kg/day alone, two-hour delay RAM, t(7)=0, p=1.00): does not significantly improve memory performance
- average no. of errors ± standard error of the mean (SEM), retention test (aged-impaired (AI) rats; donepezil 1 mg/kg/day i.p., two-hour delay RAM, AI rats n=8, vehicle control 2.88±0.67): 2.88±0.46
- memory performance relative to vehicle control treatment (aged-impaired (AI) rats; donepezil 2 mg/kg/day alone, two-hour delay RAM, t(7)=0.91, p=0.930): does not significantly improve memory performance
- average no. of errors ± SEM, retention test (aged-impaired (AI) rats; donepezil 2 mg/kg/day i.p., two-hour delay RAM, AI rats n=8, vehicle control 2.88±0.67): 2.81±0.43

SMILES: CC[C@@H](C(N)=O)N1CCCC1=O [levetiracetam, (2S)-2-(2-oxopyrrolidin-1-yl) butanamide]
- effective doses of levetiracetam used in the animal model (aged-impaired (AI) rats; AI rats, given acutely): 5 to 10 mg/kg
- memory performance in AI rats (aged-impaired (AI) rats; levetiracetam 2.5 mg/kg/day individually, in the absence of donepezil): does not significantly improve memory performance
- average no. of errors ± standard error of the mean (SEM), retention test (aged-impaired (AI) rats; levetiracetam 5 mg/kg/day i.p., one-hour delay RAM, AI rats n=10, vehicle control 2.00±0.42): 0.75±0.32
- memory performance relative to vehicle control treatment (aged-impaired (AI) rats; levetiracetam 5 mg/kg/day, one-hour delay RAM, t(9)=2.18, p=0.057): significantly improves memory performance
- average no. of errors ± SEM, retention test (aged-impaired (AI) rats; levetiracetam 10 mg/kg/day i.p., one-hour delay RAM, AI rats n=10, vehicle control 2.00±0.42): 0.80±0.27
- memory performance relative to vehicle control treatment (aged-impaired (AI) rats; levetiracetam 10 mg/kg/day, one-hour delay RAM, t(9)=2.37, p=0.042): significantly improves memory performance
- performance of AI rats in the radial maze task (aged-impaired (AI) rats; levetiracetam 20 mg/kg): fails to improve the performance
- entorhinal cortex (EC) activity during memory judgments (aMCI subjects [1]): increases EC activity
- DG/CA3 activity during lure stimuli correctly identified as "similar" (aMCI subjects [1]; p=0.037): reduces DG/CA3 hyper-activity
- binding to SV2A [2]: binds to a specific site in the CNS: the synaptic vesicle protein 2A (SV2A)
- performance in Benton Visual Retention Test (aMCI subjects [3]): fail to rescue performance
- performance in Buschke Selective Reminding Test—Delayed Recall (aMCI subjects [3]): fail to rescue performance
- performance in Verbal Paired Associates Test—Delayed Recall (aMCI subjects [3]): fail to rescue performance
- performance in Verbal Paired Associates Test—Recognition (aMCI subjects [3]): fail to rescue performance
- absorption ([4]; after oral administration): rapidly and almost completely absorbed
- plasma half-life ([4]; expected in elderly due to decreased renal function): 9 to 10 h
- time of peak plasma concentrations ([4]; following oral administration): about 1 hour
- plasma half-life ([4]; in vivo): approximately 7±1 hour
- time to steady state ([4]; multiple twice-daily dosing): 2 days
- bioavailability, effect of food ([4]; oral): not affected by food
- performance in the explicit 3-alternative forced choice task (aMCI subjects [5]): improves significantly
